Measurements from patent US20260108546A1 (ELI LILLY AND COMPANY, priority 2024, published 2026).

Target: T1, hGIP-R (Homo sapiens, UniProt P48546)
T1 construct: expressed in transfected cells; host or cells: HEK-293 clonal cell lines
T1 sequence (P48546 22-466): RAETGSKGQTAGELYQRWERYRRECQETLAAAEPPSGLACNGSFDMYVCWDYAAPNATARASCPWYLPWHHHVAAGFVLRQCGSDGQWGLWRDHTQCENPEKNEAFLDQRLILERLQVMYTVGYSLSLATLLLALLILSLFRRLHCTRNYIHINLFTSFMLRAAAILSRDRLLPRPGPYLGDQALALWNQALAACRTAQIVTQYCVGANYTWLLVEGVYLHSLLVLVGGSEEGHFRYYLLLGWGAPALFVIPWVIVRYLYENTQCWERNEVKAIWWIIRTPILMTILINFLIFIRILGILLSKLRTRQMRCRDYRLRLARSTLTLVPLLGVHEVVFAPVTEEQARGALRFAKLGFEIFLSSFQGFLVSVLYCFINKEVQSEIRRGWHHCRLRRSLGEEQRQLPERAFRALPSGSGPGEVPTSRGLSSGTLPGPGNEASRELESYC
Assay: Functional hGIP-R Assay (cAMP formation, HTRF)
Assay type: cell-based
Settings: for Emax: cAMP efficacy, percent of maximal response to GIP(1-42)OH, 37° C., 0.1% bovine casein, arithmetic mean ± SEM; for EC50: cAMP potency, HEK-293 cells expressing hGIP-R, incubated at 37° C. in the presence of 0.1% bovine casein, geometric mean, read-out: Human GIP-R EC50, nM (SEM, n)
Procedure, shortened: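 Relative EC50 and Emax came from four-parameter logistic fits of cAMP as a percent of the human GIP (1-42) OH maximal response. The cAMP was measured by competitive HTRF after 30 min, 37 °C compound exposure of hGIP-R HEK-293 clones in IBMX (250 μM)-containing medium.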

SMILES | Emax [%] | EC50 [nM]
[2H]C([2H])([2H])n1cc(C[C@H](C(=O)NC(C)(C)Cn2nc(C(F)(F)F)cc2-c2ccc(C)nc2)N2CC[C@@]3(C[C@@H]3c3ccc(-c4cnc5nc(C6CC6)cn5c4)nc3C)C2=O)cn1 [Example 175, (R)-2-((1R,3R)-1-(6-(2-cyclopropylimidazo[1,2-a]pyrimidin-6-yl)-2-methylpyridin-3-yl)-4-oxo-5-azaspiro[2.4]heptan-5-yl)-N-(2-methyl-1-(5-(6-methylpyridin-3-yl)-3-(trifluoromethyl)-1H-pyrazol-1-yl)propan-2-yl)-3-(1-(methyl-d3)-1H-pyrazol-4-yl)propanamide] | 112 ± 1.44 | 0.996
COCc1cn2cc(-c3ccc([C@H]4C[C@@]45CCN([C@H](Cc4cnn(C(F)F)c4)C(=O)NC(C)(C)Cn4nc(C(F)(F)F)cc4-c4cncc(C)n4)C5=O)c(C)n3)cnc2n1 [Example 176, (R)-3-(1-(difluoromethyl)-1H-pyrazol-4-yl)-2-((1R,3R)-1-(6-(2-(methoxymethyl)imidazo[1,2-a]pyrimidin-6-yl)-2-methylpyridin-3-yl)-4-oxo-5-azaspiro[2.4]heptan-5-yl)-N-(2-methyl-1-(5-(6-methylpyrazin-2-yl)-3-(trifluoromethyl)-1H-pyrazol-1-yl)propan-2-yl)propanamide] | 123 | 14.4
Cc1cn2cc(-c3ccc([C@H]4C[C@@]45CCN([C@H](Cc4cnn(C(F)F)c4)C(=O)NC(C)(C)Cn4nc(C(F)(F)F)cc4-c4ccc(C(C)(C)O)nc4)C5=O)c(C)n3)cnc2n1 [Example 178, (R)-3-(1-(difluoromethyl)-1H-pyrazol-4-yl)-N-(1-(5-(6-(2-hydroxypropan-2-yl)pyridin-3-yl)-3-(trifluoromethyl)-1H-pyrazol-1-yl)-2-methylpropan-2-yl)-2-((1R,3R)-1-(2-methyl-6-(2-methylimidazo[1,2-a]pyrimidin-6-yl)pyridin-3-yl)-4-oxo-5-azaspiro[2.4]heptan-5-yl)propanamide] | 39.9 ± 0.556 | 0.743
[2H]C([2H])([2H])n1cc(C[C@H](C(=O)NC(C)(C)Cn2nc(C(F)(F)F)cc2-c2ccc(C(C)(C)O)nc2)N2CC[C@@]3(C[C@@H]3c3ccc(-c4cnc5nc(C6CC6)cn5c4)nc3C)C2=O)cn1 [Example 185, (R)-2-((1R,3R)-1-(6-(2-cyclopropylimidazo[1,2-a]pyrimidin-6-yl)-2-methylpyridin-3-yl)-4-oxo-5-azaspiro[2.4]heptan-5-yl)-N-(1-(5-(6-(2-hydroxypropan-2-yl)pyridin-3-yl)-3-(trifluoromethyl)-1H-pyrazol-1-yl)-2-methylpropan-2-yl)-3-(1-(methyl-d3)-1H-pyrazol-4-yl)propanamide] | 115 ± 5.3 | 0.402
[2H]C([2H])([2H])n1cc(C[C@H](C(=O)NC(C)(C)Cn2nc(C(F)(F)F)cc2-c2cnc(C(C)(C)O)nc2)N2CC[C@@]3(C[C@@H]3c3ccc(-c4cnc5nc(C6CC6)cn5c4)nc3C)C2=O)cn1 [Example 186, (R)-2-((1R,3R)-1-(6-(2-cyclopropylimidazo[1,2-a]pyrimidin-6-yl)-2-methylpyridin-3-yl)-4-oxo-5-azaspiro[2.4]heptan-5-yl)-N-(1-(5-(2-(2-hydroxypropan-2-yl)pyrimidin-5-yl)-3-(trifluoromethyl)-1H-pyrazol-1-yl)-2-methylpropan-2-yl)-3-(1-(methyl-d3)-1H-pyrazol-4-yl)propanamide] | 104 ± 0.548 | 1.75

Results, then the molecule that gave them:

Emax [%] | EC50 [nM] | SMILES
13.4 ± 1.64 | 6.09 | COc1ncc(-c2ccc([C@H]3C[C@@]34CCN([C@H](Cc3cnn(C(F)F)c3)C(=O)NC(C)(C)Cn3nc(C(F)(F)F)cc3-c3ccn(C5CC5)c(=O)c3)C4=O)c(C)n2)cc1F [Example 174, (R)-N-(1-(5-(1-cyclopropyl-2-oxo-1,2-dihydropyridin-4-yl)-3-(trifluoromethyl)-1H-pyrazol-1-yl)-2-methylpropan-2-yl)-3-(1-(difluoromethyl)-1H-pyrazol-4-yl)-2-((1R,3R)-1-(5′-fluoro-6′-methoxy-6-methyl-[2,3′-bipyridin]-5-yl)-4-oxo-5-azaspiro[2.4]heptan-5-yl)propanamide]
75.9 ± 4.59 | 2.95 | Cc1ncc(-c2cc(C(F)(F)F)nn2CC(C)(C)NC(=O)[C@@H](Cc2cnn(C(F)F)c2)N2CC[C@@]3(C[C@@H]3c3ccc(-c4cnc5nn(C6CC6)cc5c4)nc3C)C2=O)cn1 [Example 179, (R)-2-((1R,3R)-1-(6-(2-cyclopropyl-2H-pyrazolo[3,4-b]pyridin-5-yl)-2-methylpyridin-3-yl)-4-oxo-5-azaspiro[2.4]heptan-5-yl)-3-(1-(difluoromethyl)-1H-pyrazol-4-yl)-N-(2-methyl-1-(5-(2-methylpyrimidin-5-yl)-3-(trifluoromethyl)-1H-pyrazol-1-yl)propan-2-yl)propanamide]
35.4 ± 1.96 | 7.75 | COc1nnc(C)cc1-c1cc(C(F)(F)F)nn1CC(C)(C)NC(=O)[C@@H](Cc1cnn(C(F)F)c1)N1CC[C@@]2(C[C@@H]2c2ccc(-c3cnc4nn(C)cc4c3)nc2C)C1=O [Example 180, (R)-3-(1-(difluoromethyl)-1H-pyrazol-4-yl)-N-(1-(5-(3-methoxy-6-methylpyridazin-4-yl)-3-(trifluoromethyl)-1H-pyrazol-1-yl)-2-methylpropan-2-yl)-2-((1R,3R)-1-(2-methyl-6-(2-methyl-2H-pyrazolo[3,4-b]pyridin-5-yl)pyridin-3-yl)-4-oxo-5-azaspiro[2.4]heptan-5-yl)propanamide]
25.5 ± 2.92 | 23.1 | COC(=O)N(C)c1cc([C@H]2C[C@@H]2C(=O)N[C@H](Cc2cnn(C(F)F)c2)C(=O)NC(C)(C)Cn2nc(C(F)(F)F)cc2-c2cc(F)c(=O)n(C)c2)c(F)cc1O [Example 181, Methyl (5-((1S,2S)-2-(((R)-3-(1-(difluoromethyl)-1H-pyrazol-4-yl)-1-((1-(5-(5-fluoro-1-methyl-6-oxo-1,6-dihydropyridin-3-yl)-3-(trifluoromethyl)-1H-pyrazol-1-yl)-2-methylpropan-2-yl)amino)-1-oxopropan-2-yl)carbamoyl)cyclopropyl)-4-fluoro-2-hydroxyphenyl)(methyl)carbamate]
30.4 ± 2.08 | 41.4 | Cn1cc(-c2cc(C(F)(F)F)nn2CC(C)(C)NC(=O)[C@@H](Cc2cnn(C(F)F)c2)NC(=O)[C@H]2C[C@@H]2c2ccc3c(c2)n(C)c(=O)n3C)cc(F)c1=O [Example 182]
4.64 ± 0.608 | 44.9 | Cn1cc(-c2cc(C(F)(F)F)nn2CC(C)(C)NC(=O)[C@@H](Cc2cnn(C(F)F)c2)NC(=O)[C@H]2C[C@@H]2c2ccc3c(Cl)nn(C)c3c2)cc(F)c1=O [Example 183, (1S,2S)-2-(3-chloro-1-methyl-1H-indazol-6-yl)-N-((R)-3-(1-(difluoromethyl)-1H-pyrazol-4-yl)-1-((1-(5-(5-fluoro-1-methyl-6-oxo-1,6-dihydropyridin-3-yl)-3-(trifluoromethyl)-1H-pyrazol-1-yl)-2-methylpropan-2-yl)amino)-1-oxopropan-2-yl)cyclopropane-1-carboxamide]
